In patent US20180280377A1, “Imidazo[4,5-c]quinolin-2-one Compounds and Their Use in Treating Cancer” (ASTRAZENECA AB, priority 2015, published 2018):

Assays:
Type in all cases: cell-based
ATR = target: T1, ATR (Homo sapiens, UniProt Q13535); experiment: ATR cellular potency assay (pChk1 Ser345 in HT29 cells after 4NQO); conditions: pChk1 (Ser 345); Table 2; read-out: Assay b) ATR Cell IC50
T1 construct: endogenous in cells; host or cells: HT29 cells (ECACC #85061109)

PI3Kα = PI3Kα (Homo sapiens, UniProt P42336); experiment: PI3K cellular potency assay (phospho-Akt T308 in BT474 cells, ELISA); conditions: 2 h, phospho-Akt (T308); Table 2; read-out: Assay c) PI3Kα Cell IC50
PI3Kα, sequence (P42336 whole entry): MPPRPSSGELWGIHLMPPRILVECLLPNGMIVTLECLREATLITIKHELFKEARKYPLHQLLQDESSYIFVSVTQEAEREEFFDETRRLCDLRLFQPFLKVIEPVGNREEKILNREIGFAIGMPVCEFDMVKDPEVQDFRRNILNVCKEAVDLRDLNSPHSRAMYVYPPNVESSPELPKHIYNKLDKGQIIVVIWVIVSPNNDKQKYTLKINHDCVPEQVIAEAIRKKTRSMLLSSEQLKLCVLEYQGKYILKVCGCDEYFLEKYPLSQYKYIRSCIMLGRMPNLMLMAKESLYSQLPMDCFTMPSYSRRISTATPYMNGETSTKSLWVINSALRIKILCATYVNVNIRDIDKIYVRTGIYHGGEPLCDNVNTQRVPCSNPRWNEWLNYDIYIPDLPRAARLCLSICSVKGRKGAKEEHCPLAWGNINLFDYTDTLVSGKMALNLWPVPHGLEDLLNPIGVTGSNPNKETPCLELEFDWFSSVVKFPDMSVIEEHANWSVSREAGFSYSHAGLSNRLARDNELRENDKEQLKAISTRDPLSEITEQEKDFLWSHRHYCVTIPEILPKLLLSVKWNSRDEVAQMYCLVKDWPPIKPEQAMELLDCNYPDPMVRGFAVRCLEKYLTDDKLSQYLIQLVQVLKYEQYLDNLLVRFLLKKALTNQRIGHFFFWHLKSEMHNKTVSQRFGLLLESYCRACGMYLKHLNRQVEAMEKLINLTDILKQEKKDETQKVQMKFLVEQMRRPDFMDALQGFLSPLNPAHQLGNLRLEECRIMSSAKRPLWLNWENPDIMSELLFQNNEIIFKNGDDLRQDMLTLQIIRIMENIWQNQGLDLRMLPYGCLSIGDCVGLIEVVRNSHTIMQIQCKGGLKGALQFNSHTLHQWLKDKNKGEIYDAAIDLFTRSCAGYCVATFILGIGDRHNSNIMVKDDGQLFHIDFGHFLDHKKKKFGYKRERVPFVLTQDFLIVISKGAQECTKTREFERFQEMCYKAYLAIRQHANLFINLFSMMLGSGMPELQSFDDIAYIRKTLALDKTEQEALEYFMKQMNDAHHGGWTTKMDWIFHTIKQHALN
PI3Kα, sequence (P27986 2-724, further chain): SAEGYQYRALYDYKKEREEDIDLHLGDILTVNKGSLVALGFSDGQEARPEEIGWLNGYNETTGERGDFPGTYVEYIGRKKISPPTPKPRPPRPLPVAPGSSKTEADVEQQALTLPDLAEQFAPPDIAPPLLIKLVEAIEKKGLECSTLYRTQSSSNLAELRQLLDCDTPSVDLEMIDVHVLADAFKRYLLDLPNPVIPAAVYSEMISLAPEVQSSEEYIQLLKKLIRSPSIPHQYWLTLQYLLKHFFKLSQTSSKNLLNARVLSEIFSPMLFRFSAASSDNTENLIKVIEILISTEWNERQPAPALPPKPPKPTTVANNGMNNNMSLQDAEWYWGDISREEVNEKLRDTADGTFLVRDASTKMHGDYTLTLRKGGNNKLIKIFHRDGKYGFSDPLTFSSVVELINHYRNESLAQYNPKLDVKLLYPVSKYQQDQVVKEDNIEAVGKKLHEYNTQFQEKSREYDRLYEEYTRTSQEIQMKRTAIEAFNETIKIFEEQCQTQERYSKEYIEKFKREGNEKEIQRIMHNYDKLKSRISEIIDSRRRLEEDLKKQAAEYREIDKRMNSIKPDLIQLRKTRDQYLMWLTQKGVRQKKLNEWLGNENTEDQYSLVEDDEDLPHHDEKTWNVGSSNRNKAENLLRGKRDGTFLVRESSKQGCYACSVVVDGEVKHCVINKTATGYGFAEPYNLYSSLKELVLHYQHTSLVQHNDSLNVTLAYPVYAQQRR
Experimental: The following assays were used to measure the effects of the compounds of the present invention: a) ATM cellular potency assay; b) PI3K cellular potency assay; c) mTOR cellular potency assay; d) ATR cellular potency assay. During the description of the assays, generally: • i. […] IC50 values were calculated using a smart fitting model in Genedata.
This assay was used to measure PI3K-α inhibition in cells. PDK1 was identified as the upstream activation loop kinase of protein kinase B (Akt1), which is essential for the activation of PKB. Activation of the lipid kinase phosphoinositide 3 kinase (PI3K) is critical for the activation of PKB by PDK1.
Following ligand stimulation of receptor tyrosine kinases, PI3K is activated, which converts PIP2 to PIP3, which is bound by the PH domain of PDK1 resulting in recruitment of PDK1 to the plasma membrane where it phosphorylates AKT at Thr308 in the activation loop.
The aim of this cell-based mode of action assay is to identify compounds that inhibit PDK activity or recruitment of PDK1 to membrane by inhibiting PI3K activity. Phosphorylation of phospho-Akt (T308) in BT474c cells following treatment with compounds for 2 h is a direct measure of PDK1 and indirect measure of PI3K activity.
The following morning compounds in 100% DMSO were added to assay plates by acoustic dispensing.
Plates were incubated over night at 4° C. The next day the plates were washed with PBS buffer containing 0.05% Tween 20 and further incubated with a mouse monoclonal anti-phospho AKT T308 for 2 h. Plates were washed again as above before addition of a horse anti-mouse-HRP conjugated secondary antibody. […] The developed fluorescent product was stopped after 60 minutes by addition of Stop solution to the wells.

ATM = target: T2, ATM (Homo sapiens, UniProt Q13315); experiment: ATM cellular potency assay (pATM Ser1981 in irradiated HT29 cells); conditions: 1 h compound, X-ray irradiation, pATM (Ser1981); Table 2; read-out: Assay a) ATM Cell IC50
T2 construct: endogenous in cells; host or cells: HT29 cells (ECACC #85061109)
T2 sequence (Q13315 whole entry): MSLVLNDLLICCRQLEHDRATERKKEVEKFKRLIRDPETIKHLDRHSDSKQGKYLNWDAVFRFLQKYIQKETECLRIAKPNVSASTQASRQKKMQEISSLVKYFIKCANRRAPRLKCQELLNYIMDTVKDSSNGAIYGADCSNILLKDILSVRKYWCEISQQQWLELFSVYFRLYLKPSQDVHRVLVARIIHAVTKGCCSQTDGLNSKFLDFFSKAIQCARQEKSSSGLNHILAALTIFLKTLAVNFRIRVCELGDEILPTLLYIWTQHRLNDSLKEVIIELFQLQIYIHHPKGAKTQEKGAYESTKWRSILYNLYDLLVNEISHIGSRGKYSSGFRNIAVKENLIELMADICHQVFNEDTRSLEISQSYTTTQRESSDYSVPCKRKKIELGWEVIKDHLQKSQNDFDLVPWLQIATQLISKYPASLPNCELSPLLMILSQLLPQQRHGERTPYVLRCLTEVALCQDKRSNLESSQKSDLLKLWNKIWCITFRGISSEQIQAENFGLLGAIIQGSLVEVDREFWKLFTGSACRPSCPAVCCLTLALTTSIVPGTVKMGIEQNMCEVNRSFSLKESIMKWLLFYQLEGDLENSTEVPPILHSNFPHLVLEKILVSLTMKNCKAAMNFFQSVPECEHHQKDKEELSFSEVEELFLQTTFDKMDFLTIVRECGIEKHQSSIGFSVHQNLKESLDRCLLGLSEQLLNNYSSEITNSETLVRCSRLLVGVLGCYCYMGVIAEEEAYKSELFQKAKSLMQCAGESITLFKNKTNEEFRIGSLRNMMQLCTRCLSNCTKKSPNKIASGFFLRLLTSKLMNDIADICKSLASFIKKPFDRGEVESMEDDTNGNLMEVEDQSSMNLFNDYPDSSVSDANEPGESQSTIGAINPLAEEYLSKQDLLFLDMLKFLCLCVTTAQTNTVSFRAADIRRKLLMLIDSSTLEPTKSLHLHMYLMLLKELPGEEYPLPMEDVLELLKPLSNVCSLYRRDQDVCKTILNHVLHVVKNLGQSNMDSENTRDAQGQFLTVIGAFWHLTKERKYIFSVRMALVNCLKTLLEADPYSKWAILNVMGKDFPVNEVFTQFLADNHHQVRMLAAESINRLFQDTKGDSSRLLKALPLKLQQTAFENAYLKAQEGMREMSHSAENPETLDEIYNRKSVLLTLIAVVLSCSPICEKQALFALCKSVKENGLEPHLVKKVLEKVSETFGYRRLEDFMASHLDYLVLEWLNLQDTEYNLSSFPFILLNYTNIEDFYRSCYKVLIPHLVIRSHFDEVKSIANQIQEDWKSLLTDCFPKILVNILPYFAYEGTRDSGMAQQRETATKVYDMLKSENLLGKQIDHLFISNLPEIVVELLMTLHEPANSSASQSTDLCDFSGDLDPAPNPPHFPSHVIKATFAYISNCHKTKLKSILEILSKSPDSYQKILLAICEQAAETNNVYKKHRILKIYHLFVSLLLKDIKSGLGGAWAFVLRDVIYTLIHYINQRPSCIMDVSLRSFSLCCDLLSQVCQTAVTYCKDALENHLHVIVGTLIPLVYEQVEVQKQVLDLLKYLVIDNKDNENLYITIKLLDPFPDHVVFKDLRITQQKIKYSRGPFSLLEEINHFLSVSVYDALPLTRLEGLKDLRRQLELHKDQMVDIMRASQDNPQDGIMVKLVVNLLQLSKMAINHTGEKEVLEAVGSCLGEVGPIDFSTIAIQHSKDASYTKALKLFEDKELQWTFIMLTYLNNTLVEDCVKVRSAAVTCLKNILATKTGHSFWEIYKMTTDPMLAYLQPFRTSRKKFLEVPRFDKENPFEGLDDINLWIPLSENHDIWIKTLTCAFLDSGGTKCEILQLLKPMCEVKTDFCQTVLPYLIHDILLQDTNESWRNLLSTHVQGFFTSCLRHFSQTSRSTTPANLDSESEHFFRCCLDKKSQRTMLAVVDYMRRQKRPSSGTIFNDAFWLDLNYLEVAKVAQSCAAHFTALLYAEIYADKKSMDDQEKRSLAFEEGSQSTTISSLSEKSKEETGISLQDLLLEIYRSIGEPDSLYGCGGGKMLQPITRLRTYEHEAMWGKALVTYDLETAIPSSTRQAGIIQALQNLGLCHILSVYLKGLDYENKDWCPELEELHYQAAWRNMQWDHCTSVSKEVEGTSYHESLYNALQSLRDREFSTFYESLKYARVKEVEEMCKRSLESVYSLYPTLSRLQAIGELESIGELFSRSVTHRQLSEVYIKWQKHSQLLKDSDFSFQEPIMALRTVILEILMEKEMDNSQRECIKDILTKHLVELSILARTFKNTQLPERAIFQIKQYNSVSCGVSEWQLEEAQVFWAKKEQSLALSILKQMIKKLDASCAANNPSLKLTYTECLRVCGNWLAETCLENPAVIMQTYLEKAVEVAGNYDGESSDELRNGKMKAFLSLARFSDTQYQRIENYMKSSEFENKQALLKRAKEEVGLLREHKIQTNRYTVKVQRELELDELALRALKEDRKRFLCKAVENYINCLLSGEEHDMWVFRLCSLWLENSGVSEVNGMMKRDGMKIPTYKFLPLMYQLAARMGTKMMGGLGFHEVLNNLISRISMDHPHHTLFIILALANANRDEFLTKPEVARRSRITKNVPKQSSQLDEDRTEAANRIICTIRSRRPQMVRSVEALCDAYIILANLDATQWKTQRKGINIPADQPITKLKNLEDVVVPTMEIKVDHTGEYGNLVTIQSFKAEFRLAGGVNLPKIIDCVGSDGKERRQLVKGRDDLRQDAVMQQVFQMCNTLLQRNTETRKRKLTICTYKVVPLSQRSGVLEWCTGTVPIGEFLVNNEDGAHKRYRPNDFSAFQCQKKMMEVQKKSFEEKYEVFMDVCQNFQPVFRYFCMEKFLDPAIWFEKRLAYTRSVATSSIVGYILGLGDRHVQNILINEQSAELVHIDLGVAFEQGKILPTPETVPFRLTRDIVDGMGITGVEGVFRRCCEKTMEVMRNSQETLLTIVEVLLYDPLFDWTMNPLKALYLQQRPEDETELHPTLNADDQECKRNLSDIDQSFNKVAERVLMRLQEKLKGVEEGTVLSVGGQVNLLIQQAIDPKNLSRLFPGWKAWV

IC50 (ATR)	IC50 (PI3Kα)	IC50 (ATM)	SMILES
1420 nM	1220 nM	0.626 nM	CN(C)[C@@H]1CCN(c2ccc(-c3ccc4ncc5c(c4c3)n([C@@H]3CCCOC3)c(=O)n5C)cn2)C1 [Example 7]
> 30000 nM	> 30000 nM	1.16 nM	CNC1CCN(c2ccc(-c3cc4c(cc3F)ncc3c4n([C@H]4C[C@@H](OC)C4)c(=O)n3C)cn2)CC1 [Example 57, 7-Fluoro-1-(cis-3-methoxycyclobutyl)-3-methyl-8-[6-[4-(methylamino)-1-piperidyl]-3-pyridyl]imidazo[4,5-c]quinolin-2-one]
> 30000 nM	292 nM	0.502 nM	CNC1CCN(c2ccc(-c3ccc4ncc5c(c4c3)n([C@H]3C[C@@H](OC)C3)c(=O)n5C)cn2)CC1 [Example 60, 1-(cis-3-methoxycyclobutyl)-3-methyl-8-[6-[4-(methylamino)-1-piperidyl]-3-pyridyl]imidazo[4,5-c]quinolin-2-one]

The remaining lines, values behind:

SMILES	IC50 (ATR)	IC50 (PI3Kα)	IC50 (ATM)
CO[C@H]1CC[C@H](n2c(=O)n(C)c3cnc4ccc(-c5ccc(N6CCC(N(C)C)CC6)nc5)cc4c32)C1 (single isomer, unassigned) [Example 32, 8-[6-[4-(dimethylamino)-1-piperidyl]-3-pyridyl]-1-[trans-3-methoxycyclopentyl]-3-methyl-imidazo[4,5-c]quinolin-2-one]	> 30000 nM	663 nM	0.307 nM
CN(C)[C@H]1CCN(c2ccc(-c3cc4c(cc3F)ncc3c4n([C@H]4CCCOC4)c(=O)n3C)cn2)C1 [Example 20]	> 30000 nM	> 10000 nM	36.5 nM
CO[C@H]1C[C@@H](n2c(=O)n(C)c3cnc4cc(F)c(-c5ccc(N6CC(N(C)C)C6)nc5)cc4c32)C1 [Example 31, 8-[6-[3-(dimethylamino)azetidin-1-yl]-3-pyridyl]-7-fluoro-1-(cis-3-methoxycyclobutyl)-3-methyl-imidazo[4,5-c]quinolin-2-one]	> 30000 nM	> 30000 nM	33.8 nM
CO[C@H]1C[C@@H](n2c(=O)n(C)c3cnc4ccc(-c5ccc(N6CCC(N(C)C)CC6)nc5)cc4c32)C1 [Example 36, 8-[6-[4-(dimethylamino)-1-piperidyl]-3-pyridyl]-1-(cis-3-methoxycyclobutyl)-3-methyl-imidazo[4,5-c]quinolin-2-one]	> 30000 nM	987 nM	0.357 nM
CO[C@H]1C[C@@H](n2c(=O)n(C)c3cnc4cc(F)c(-c5ccc(N6CCC(N(C)C)CC6)nc5)cc4c32)C1 [Example 42, 8-[6-[4-(dimethylamino)-1-piperidyl]-3-pyridyl]-7-fluoro-1-(cis-3-methoxycyclobutyl)-3-methyl-imidazo[4,5-c]quinolin-2-one]	> 30000 nM	> 30000 nM	1.54 nM
